Measured values reported in article PMC10449621, “Engineering cellular communication between light-activated synthetic cells and bacteria” (Nature Chemical Biology, 2023).
Several values for one entry are separate records, joined by “and”; a condition that tells them apart may be missing. Equal entries are not always repeated.

Tested on: BjaRS107R (B0034|CTG) receiver cells
Test: IV-HSL biosynthesis by BjaI in bulk CFPS reactions, quantified with receiver cells
Type: cell-based, E. coli XL10-Gold
Conditions: 10 nM
Procedure: We first validated bjaI expression using bulk CFPS reactions containing (^35S)-methionine to visualize the newly synthesized protein. The full-length BjaI protein (25 kDa) was successfully translated, and its expression was not influenced by the presence of SAM and IV-CoA (Fig. 4b). To establish whether the BjaI was enzymatically active, CFPS reactions containing 80 µM IV-CoA and 300 µM SAM were incubated at 37 °C for 5 h, and then serially diluted and incubated with BjaRS107R (B0034|CTG) receiver cells. Indeed, IV-HSL was successfully synthesized within the CFPS reactions as the reaction mixture containing the complete set of components (bjaI DNA + SAM + IV-CoA) fully activated gfp expression in the receivers, while no fluorescence output was observed from CFPS reactions containing SAM and IV-CoA, but without bjaI DNA template (Fig. 4c,d). […] Similarly, on transferring this system inside GUVs, BjaI-producing synthetic cells also synthesized sufficient IV-HSL to fully activate gfp expression in BjaRS107R (B0033|ATG) receiver cells. […] The loss in specific activity between CFPS performed in bulk compared to inside GUVs was attributed to the loss of inner solution during emulsion phase transfer and when the GUVs ruptured, less efficient CFPS in GUVs compared to in bulk, and absence of gene expression in some GUVs.
In total, 3 µl CFPS reactions were prepared using PURExpress with 0.8 U µl^−1 murine RNase inhibitor, 5 ng µl^−1 linear bjaI DNA template and 300 µM SAM and 80 µM IV-CoA, as indicated. Reactions were incubated for 5 h at 37 °C using a thermal cycler and then serially diluted in Milli-Q H2O. In total, 1 µl of the samples was added to lidded Corning 96-well plates containing 200 µl BjaI receiver cells (pSB1A3 BjaRS107R (CTG) at OD600 = 0.05). Cells were grown at 37 °C, 800 r.p.m. in a thermomixer with a heated lid for 4 h. OD600 and fluorescence were measured using a Tecan infinite M1000 plate reader (Ex, 488 nm; Em, 510 nm; bandwidth, 5 nm; z position, 23,179 µm and gain, 101).

## CC(C)CC(=O)N[C@H]1CCOC1=O [IV-HSL, N-isovaleryl-L-homoserine lactone]
  GFP: 45669 and 34133 and 41279
  Mean normalised fluorescence: 170055
  Normalised fluorescence: 160035 and 169389 and 180741
